# Laboratory results from patent US20260183321A1, “TREATMENT OF CORONAVIRUS INFECTIONS WITH ANTIMICROBIAL PHOSPHOLIPID COMPOSITIONS” (NATIONAL JEWISH HEALTH, priority 2022, published 2026).
# Columns and labels:
# [1] = tested on: SARS-CoV-2 variant, B.1.351; type: cell-based
# [2] = tested on: B.1.617.2 (delta variant); type: cell-based, SARS-CoV-2; conditions: healthy control subjects n=4, m.o.i. 0.1, 48 hrs; 10 mg/ml POPG, 4 mg/ml PI, prophylactic
# [3] = tested on: B1.1.529 (omicron variant); type: cell-based, SARS-CoV-2; conditions: healthy control subjects n=4, m.o.i. 0.1, 48 Hr; 10 mg/ml POPG, 4 mg/ml PI, prophylactic
Compound,attenuation of B.1.351 replication [1] [%],B.1.617.2 (delta variant) replication [2],B.1.1.529 (Omicron variant) replication [3]
phosphatidylinositol [PI],70,inhibited,inhibited
"CCCCCCCC/C=C\CCCCCCCC(=O)O[C@H](COC(=O)CCCCCCCCCCCCCCC)COP(=O)(O)OCC(O)CO (stereo partly drawn) [POPG, palmitoyl-oleoyl-phosphatidylglycerol]",50,inhibited,inhibited
